Measured values from patent US6500846B1, “CDK inhibitors having flavone structure” (LG Chemical, Ltd., priority 1998, dated 2002).

Experiments:
[1] = target: T1, CDK2/cyclin A (Homo sapiens, UniProt P24941); test: Inhibitory activity against CDK2/cyclin A enzyme (GST-RB phosphorylation, P32-γ-ATP, scintillation counting); type: biochemical; settings: 100 μM ATP, GST-RB substrate, 30° C. 30 minutes
T1 construct: made in house; host or cells: insect cells infected with baculoviruses
Experimental: (§1) Analysis of inhibitory activity against CDK2/cyclin A and CDK4/cyclin D1 enzyme.
(§2) The inhibitory activity against CDK2 is measured by referring to Kitagawa, M. et al., Oncogene 9:2549, 1994 and the inhibitory activity against CDK4 is measured by referring to Carlson, B. A. et al., Cancer Research 56:2473,1996.
(§3) As for CDK2, either the extract from the insect cell infected both with baculovirus which expresses CDK2 gene and baculovirus which expresses cyclin A gene or the active enzyme which had been purified therefrom was used. CDK4 enzyme was also obtained from the insect cell infected both with baculovirus expressing CDK4 gene and baculovirus expressing cyclin D1 gene. As the substrate for CDK2, either histon H1 or Rb protein was used. Rb protein was also used as the substrate for CDK4.
(§4) Specifically the activities of enzymes CDK2/cyclin A and CDK4/cyclin D1 were determined according to the following procedure.
(§5) 100 ng of enzyme was reacted in a total 1000 μl of 20 mM Tris (pH 8.0), 100 mM NaCl, 10 mM MgCl2 buffer solution containing 20 μg of GST-RB protein, 100 μM of ATP and 5 μCi of P32-γ-ATP at 30° C. for 30 minutes. Then, the enzyme reaction was stopped by adding EDTA to a concentration of 20 mM. Subsequently, 30 μl of 50% glutathione bead (purchased from Pharmacia) was added to attach GST-RB to the bead, which was washed three times with 20mM Tris (pH 8.0), 100 mM NaCl, 10 mM EDTA solution, and then scintillation counting was carried out. To analyze the inhibitory activity of the compound, the inhibitor having a proper concentration was added to the enzyme reaction solution, and then the enzyme activity was measured according to the above method.
(§6) The inhibitory activity of the compound of formula (1) according to the present invention against CDK2 and CDK4 is represented as IC50 value. The compounds which are not included in Examples(compound 63, 64, 65 and 66) were synthesized and purified according to the same procedure as examples, and then IC50 thereof was measured.

[2] = in vivo; settings: male, ICR, mouse, po
Experimental: The acute oral toxcities of the compounds 14, 17, 28, 39, 51 and 57 each of which is obtained in Examples 14, 17, 73,84, 96 and 102, respectively are investigated in the following.
Solutions containing a compound in several different concentrations from each other were prepared, and they were administered orally to ICR male mouse with a dose of 10 ml/kg.
After administration, lethality and symptoms for 7 days were observed, and LD50 (mg/kg) was calculated according to Litchfield-Wilcoxon' method.

[3] = target: T2, CDK4/cyclin D1 (Homo sapiens, UniProt P11802); test: Inhibitory activity against CDK4/cyclin D1 enzyme (GST-RB phosphorylation, P32-γ-ATP, scintillation counting); type: biochemical; settings: CDK4/cyclin D1, 100 μM ATP, GST-RB substrate, 30° C. 30 minutes
T2 construct: made in house; host or cells: insect cells infected with baculoviruses
Experimental: as §1, §2, §3, §4, §5, §6

T2 sequence (P11802 whole entry, species assumed): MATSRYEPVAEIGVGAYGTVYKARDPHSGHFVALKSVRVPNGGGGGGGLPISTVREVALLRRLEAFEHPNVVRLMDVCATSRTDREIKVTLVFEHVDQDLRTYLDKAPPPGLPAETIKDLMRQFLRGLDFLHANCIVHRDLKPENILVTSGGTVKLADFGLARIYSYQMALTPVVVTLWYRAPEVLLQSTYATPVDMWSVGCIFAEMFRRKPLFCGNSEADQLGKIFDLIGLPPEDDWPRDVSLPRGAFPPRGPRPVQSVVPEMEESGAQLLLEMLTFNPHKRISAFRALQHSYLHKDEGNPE
T2 sequence (P24385 whole entry partner, species assumed): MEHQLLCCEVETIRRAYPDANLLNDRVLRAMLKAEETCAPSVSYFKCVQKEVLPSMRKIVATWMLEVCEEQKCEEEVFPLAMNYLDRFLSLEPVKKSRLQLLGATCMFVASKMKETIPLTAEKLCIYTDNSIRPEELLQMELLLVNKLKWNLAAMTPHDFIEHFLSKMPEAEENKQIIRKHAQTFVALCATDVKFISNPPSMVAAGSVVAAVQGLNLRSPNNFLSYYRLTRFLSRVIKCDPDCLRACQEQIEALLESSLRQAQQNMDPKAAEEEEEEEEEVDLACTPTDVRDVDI

Row | SMILES | IC50 [1] | LD50 at 7 days [2] | IC50 [3]
1 | O=c1c(O)c(-c2ccc(O)c(O)c2)oc2ccc(F)cc12 [Compound 17, 6-fluoro-2-(3,4-dihydroxyphenyl)-3-hydroxy-4H-chromen-4-one] | < 10 µM | > 3000 mg/kg | < 10 µM
2 | CC(=O)Nc1ccc2oc(-c3ccc(O)c(O)c3)c(O)c(=O)c2c1 [Compound 51, N-[2-(3,4-dihydroxyphenyl)-3-hydroxy-4-oxo-4H-chromen-6-yl]acetamide] | 5.6 µM | > 3000 mg/kg | 5.6 µM
